Measured values published in PubChem BioAssay (NCI).
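These data come from cells grown in 96-well plates and exposed to compound for 48 hours at five concentrations. Definition used: TGI = concentration required for complete inhibition of growth.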

How the values were obtained:
Assay in all cases: NCI tumour cell line growth inhibition, 48 h
OVCAR-4 ovarian = system: OVCAR-4 ovarian
PC-3 prostate = system: PC-3 prostate
NCI-H460 lung = system: NCI-H460 lung
A498 renal = system: A498 renal
U251 CNS = system: U251 CNS
T-47D breast = system: T-47D breast
HS 578T breast = system: HS 578T breast
HOP-92 NSCLC = system: HOP-92 NSCLC
OVCAR-5 ovarian = system: OVCAR-5 ovarian
UACC-62 melanoma = system: UACC-62 melanoma

SMILES	TGI (OVCAR-4 ovarian)	TGI (PC-3 prostate)	TGI (NCI-H460 lung)	TGI (A498 renal)	TGI (U251 CNS)	TGI (T-47D breast)	TGI (HS 578T breast)	TGI (HOP-92 NSCLC)	TGI (OVCAR-5 ovarian)	TGI (UACC-62 melanoma)
COc1cc(CCNC2=CC(=O)c3cccnc3C2=O)ccc1O	3.87 µM	18.7 µM	2.65 µM	7.6 µM	7.05 µM	35.1 µM	3.56 µM	19 µM	2.99 µM	2.7 µM
N#Cc1ccc(OC(=O)c2ccc(N=C(N)N)cc2)cc1	> 100 µM	> 100 µM	> 100 µM	> 100 µM	> 100 µM	> 100 µM	> 100 µM	> 100 µM	> 100 µM	> 100 µM
[N-]=[N+]=C(C(=O)OCC#CCOC(=O)C(=[N+]=[N-])S(=O)(=O)c1ccccc1)S(=O)(=O)c1ccccc1	> 10 µM	> 10 µM	> 10 µM	> 10 µM	> 10 µM	> 10 µM	> 10 µM	> 10 µM	> 10 µM	> 10 µM
O=C(O)CS(=O)c1ccc2c3c(cccc13)C(=O)c1ccccc1-2 (stereo not given)	> 100 µM	> 100 µM	> 100 µM	> 100 µM	> 100 µM	> 100 µM	> 100 µM	> 100 µM	> 100 µM	> 100 µM
COc1ccccc1C1=C2C(=O)N(C)C(c3ccccc3OC)=C2C(=O)N1C	> 100 µM	> 100 µM	> 100 µM	> 100 µM	> 100 µM	> 100 µM	97.1 µM	> 100 µM	> 100 µM	> 100 µM
C/C=C1\CN2CCC34c5ccccc5N(C)C35OCC4(C(=O)OC)C1CC25 (stereo not given)	> 100 µM	> 100 µM	64.8 µM	> 100 µM	> 100 µM	75.7 µM	> 100 µM	> 100 µM	> 100 µM	> 100 µM
O=C(O)C(F)(F)C(F)(F)C(F)(F)C(F)(F)C(=O)O	> 100 µM	> 100 µM	> 100 µM	> 100 µM	> 100 µM	> 100 µM	> 100 µM	> 100 µM	> 100 µM	> 100 µM
CN1[C@@H]2CCCC[C@H]2N(C)P1(=O)C(O)/C=C/c1ccccc1 (stereo not given in full)	> 100 µM	> 100 µM	> 100 µM	> 100 µM	> 100 µM	> 100 µM	> 100 µM	> 100 µM	> 100 µM	> 100 µM
Cc1ccc(S(=O)(=O)N(CC(O)c2ccccc2)c2ccccc2F)cc1 (stereo not given)	27.4 µM	32.2 µM	32.5 µM	36 µM	36.7 µM	40.7 µM	41.1 µM	22.9 µM	41 µM	28 µM
Cc1ccc(C2(N3CCCC3)OC(C)(C)c3cccc4cccc2c34)cc1 (stereo not given)	27.6 µM	36.2 µM	26.3 µM	30 µM	29.4 µM	46.9 µM	31.8 µM	21.2 µM	31.4 µM	27.5 µM
O=S(=O)(O)c1ccc2c(N=Nc3ccccc3)c(O)c(S(=O)(=O)O)cc2c1	> 100 µM	> 100 µM	> 100 µM	> 100 µM	> 100 µM	> 100 µM	> 100 µM	> 100 µM	> 100 µM	> 100 µM
COc1ccc2c(c1)c(=O)c1c(NCCCN(C)CCCNc3ccc4c(=O)n(CCN(C)C)c(=O)n5c6ccc(OC)cc6c(=O)c3c45)ccc3c(=O)n(CCN(C)C)c(=O)n2c31	< 0.049 µM	0.858 µM	0.209 µM	3.39 µM	1.26 µM	9.43 µM	1.73 µM	0.941 µM	3.63 µM	0.956 µM
C/C=C1/CN2[C@@H](C3=C[C@@H]4[C@@H]5N(C3=O)c3ccccc3[C@@]53CCN5C/C(=C/C)[C@@H]4C[C@H]53)C[C@@]34c5ccccc5N5C(=O)CC=C([C@H]1C[C@H]23)[C@H]54	19.9 µM	9.72 µM	15.4 µM	14.5 µM	7.67 µM	49.2 µM	17.3 µM	13.2 µM	15 µM	9.1 µM
O=C1c2n[nH]nc2C(=O)c2n[nH]nc21	> 100 µM	> 100 µM	> 100 µM	> 100 µM	> 100 µM	> 100 µM	> 100 µM	> 100 µM	> 100 µM	> 100 µM
COc1ccc(OC)c(C(=O)/C=C/c2cc(O)c(O)cc2F)c1	> 90 µM	17.1 µM	9.27 µM	12.5 µM	12.3 µM	> 100 µM	> 100 µM	> 67 µM	38.9 µM	11.7 µM
COc1ccc(C2c3cc4c(cc3OC(NNC(N)=O)C2C)OCO4)cc1 (stereo not given)	> 100 µM	53.8 µM	98.9 µM	8.59 µM	35.2 µM	> 100 µM	> 100 µM	78.7 µM	> 100 µM	> 70.2 µM
